Reference: ChEMBL document CHEMBL1140858, “Ceramicines B-D, new antiplasmodial limonoids from Chisocheton ceramicus” (Bioorg Med Chem, 2009)
Converted amounts (≈) assume the structure as drawn.

What was measured:
[1] = tested on: Plasmodium falciparum; experiment: Antiplasmodial activity against Plasmodium falciparum 3D7 by Giemsa staining; format: functional, organism-based
[2] = tested on: P388; experiment: Cytotoxicity against mouse P388 cells by MTT assay; format: cell-based

SMILES	IC50 [1]	IC50 [2]
CC(=O)O[C@@H]1[C@H]2[C@@H](O)C=CC(=O)[C@]2(C)[C@H]2CC[C@]3(C)C(=CC[C@H]3c3ccoc3)[C@]2(C)[C@@H]1O [CERAMICINES A]	44.2 µg/mL (≈ 100 µM)	–
C[C@]12C3=CC[C@@H](c4ccoc4)[C@]3(C)CC[C@@H]1[C@@]1(C)C(=O)C=C[C@@]3(C)CO[C@@H]([C@H]2O)[C@H]13 [CERAMICINES B]	0.23 µg/mL (≈ 0.563 µM)	15 µg/mL (≈ 36.7 µM)
C=C(C)C(=O)O[C@H]1C[C@H]2[C@](C)(C3=CC[C@@H](c4ccoc4)[C@@]31C)[C@H](O)[C@@H]1OC[C@]3(C)C=CC(=O)[C@@]2(C)[C@@H]13 [CERAMICINES C]	2.38 µg/mL (≈ 4.83 µM)	5.5 µg/mL (≈ 11.2 µM)
C[C@]12C3=CC[C@@H](C4=CCOC4=O)[C@]3(C)CC[C@@H]1[C@@]1(C)C(=O)C=C[C@@]3(C)CO[C@@H]([C@H]2O)[C@H]13 [CERAMICINES D]	2.15 µg/mL (≈ 5.06 µM)	27 µg/mL (≈ 63.6 µM)
